# Measured values from patent US20150259331A1, “PROTOZOAN PARASITE GROWTH INHIBITORS” (Northeastern University, priority 2014, published 2015).
# pEC50: −log10 of the molar value.
# How the values were obtained:
# [1] = system: L. major promastigote; test: L. major promastigote assay; format: cell-based; conditions: Leishmania major
# [2] = in vitro; conditions: for fraction unbound at 4 h, 5 μM: mice plasma
# Experimental: Mice plasma (BALB/c mice, male—pool of 3 animals) was collected in-house using K2EDTA as anticoagulant. […] Glipizide (Cat #50402G) was purchased from Apin chemicals, Abingdon, Oxon. Albendazole (Cat #A4673) was purchased from Sigma. Phosphate buffered saline pH 7.4 (0.1 M sodium phosphate and 0.15 M sodium chloride) and RED device inserts were procured from Thermo Scientific, Meridian Rd., Rockford, Ill.
# Further 1 mM stock was diluted 200-fold in mice plasma to prepare a concentration of 5 μM. The final DMSO concentration in plasma was 0.5%.
# Rapid equilibrium dialysis was performed with a rapid equilibrium dialysis (RED) device containing dialysis membrane with a molecular weight cut-off of 8,000 Daltons. Each dialysis insert contains two chambers. The red chamber is for plasma while the white chamber is for buffer. A 200 μL aliquot of warfarin or test compound at 5 μM (triplicates) was separately added to the plasma chamber and 350 μL of phosphate buffer saline (pH 7.4) was added to the buffer chamber of the inserts. After sealing the RED device with an adhesive film, dialysis was performed at 37° C. with shaking at 100 rpm for 4 hours as per manufacturer's recommendation.
# Recovery and stability: A 50 μL aliquot of warfarin or test compound was added to four 0.5 mL microfuse tubes. Two aliquots were frozen immediately (0 minute sample). The other two aliquots were incubated at 37° C. for 4 hours along with the RED device.
# Following dialysis, an aliquot of 50 μL was removed from each well (both plasma and buffer side) and diluted with equal volume of opposite matrix (dialyzed with the other matrix) to nullify the matrix effect. Similarly, 50 μL of buffer was added to recovery and stability samples. An aliquot of 100 μL was submitted for LC-MS/MS analysis.
# A 25 μL aliquot of warfarin and test compounds were crashed with 100 μL of acetonitrile containing internal standard (glipizide for warfarin and test compound) and vortexed for 5 minutes. The samples were centrifuged at 15,000 rpm at 4° C. for 10 min and 100 μL of supernatant was submitted for LCMS/MS analysis. Samples were monitored for parent compound in MRM mode using LC-MS/MS.
# [3] = system: endocytosis of transferrin; test: Receptor-mediated endocytosis of transferrin in the trypanosome; format: cell-based, T. brucei
# [4] = system: T. brucei; test: Trypanosome DNA content and organelle (cell cycle) analysis; format: cell-based
# Description: The kinetoplast and nucleus can be tracked by microscopy during the cell cycle, which begins with trypanosomes harboring one nucleus (1N) and one kinetoplast (1K) (i.e., 1K1N cells). A kinetoplast that is replicating its (DNA) (i.e., kDNA) and increasing the organelle's mass is observed as an elongated kinetoplast (1Ke). Fission (segregation) of 1Ke kinetoplasts into two daughter kinetoplasts (2K) inside the same cell is coincident with the nuclear S-phase and produces 2K1N trypanosomes. Mitosis then occurs, yielding trypanosomes containing two kinetoplasts and two nuclei (2K2N). Following cell division, each daughter trypanosome has a 1K1N configuration of the organelles.
# [5] = Protein binding (Table 14); conditions: plasma
structure (smiles),measurement,setting,value
"Fc1cccc(COc2ccc(Nc3ncnc4ccc(-c5cccc(N6CCOCC6)c5)cc34)cc2Cl)c1 [Compound 23a, N-(3-Chloro-4-((3-fluorobenzyl)oxy)phenyl)-6-(3-morpholinophenyl)quinazolin-4-amine]",pEC50,[1],5.52
same,"recovery at 4 h, 5 μM","[2]; male, BALB/c, mouse, pH 7.4",100%
same,% Bound Mean (SD),"[2]; male, BALB/c, mouse, plasma, pH 7.4",99.6%
same,"fraction unbound at 4 h, 5 μM","[2]; male, BALB/c, mouse, plasma, pH 7.4, % Bound R1, replicate 1, 37° C.",0.005
same,"fraction unbound at 4 h, 5 μM","[2]; male, BALB/c, mouse, plasma, pH 7.4, % Bound R2, replicate 2, 37° C.",0.003
same,% compound remaining at 4 h,"[2]; plasma stability, 37° C.",85%
same,effect on endocytosis of transferrin,[3],no effect
same,"effect on kinetoplast, nucleus and cytokinesis (single cell microscopy)",[4],blocks duplication of the kinetoplast and arrests cytokinesis without inhibiting division of the trypanosome nucleus
same,proportion of cells with 4C DNA,"[4]; 7 h incubation, 25% without drug",40%
same,fraction of cells with 2C-4C equivalents of DNA,"[4]; 7 h incubation, 40% without drug",25%
same,fraction unbound,[5],< 0.01
